Measured values published in PubChem BioAssay (NCI).
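The compound was tested at five concentrations on cells cultured in 96-well plates, with a 48-hour exposure period. At the GI50, growth is halved. At the TGI there is no net growth.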

Assays:
Experiment in all cases: DTP human tumour cell line panel, 48 h
KM12 colon = system: KM12 colon
HOP-92 NSCLC = system: HOP-92 NSCLC
HOP-62 NSCLC = system: HOP-62 NSCLC
DU-145 prostate = system: DU-145 prostate
OVCAR-4 ovarian = system: OVCAR-4 ovarian
PC-3 prostate = system: PC-3 prostate
SNB-19 CNS = system: SNB-19 CNS
K-562 leukemia = system: K-562 leukemia
OVCAR-3 ovarian = system: OVCAR-3 ovarian
NCI/ADR-RES ovarian = system: NCI/ADR-RES ovarian

Structure (SMILES)	TGI (KM12 colon) [µM]	TGI (HOP-92 NSCLC) [µM]	TGI (HOP-62 NSCLC) [µM]	TGI (DU-145 prostate) [µM]	TGI (OVCAR-4 ovarian) [µM]	TGI (PC-3 prostate) [µM]	TGI (SNB-19 CNS) [µM]	TGI (K-562 leukemia) [µM]	TGI (OVCAR-3 ovarian) [µM]	TGI (NCI/ADR-RES ovarian) [µM]	GI50 (KM12 colon) [µM]	GI50 (HOP-92 NSCLC) [µM]	GI50 (HOP-62 NSCLC) [µM]	GI50 (DU-145 prostate) [µM]	GI50 (OVCAR-4 ovarian) [µM]	GI50 (PC-3 prostate) [µM]	GI50 (SNB-19 CNS) [µM]	GI50 (K-562 leukemia) [µM]	GI50 (OVCAR-3 ovarian) [µM]	GI50 (NCI/ADR-RES ovarian) [µM]
NC(C(=O)O)C(N)C(=O)O (stereo unspecified)	> 100	> 100	> 100	> 100	> 100	> 100	> 100	> 100	> 100	> 100										
N#Cc1cccc(Nc2nccc(-c3cnn4ncccc34)n2)c1	0.0263	0.0166		3.46		> 25	> 25	> 25	0.015		0.00632	0.00589	0.00749	0.00661	0.0322	0.00745	0.00702	0.00782	0.00541	0.00697
CCN(C)S(=O)(=O)Nc1cccc(Nc2ncnc3cc(NC(=O)CCl)ccc23)c1Cl	12.2	7.95	7.73	8.86	8.75	8.32	7.18	> 25	7.8	> 25	4.39	3.4	3.42	3.69	3.53	2.97	2.99	1.1	3.76	9.17
C=C1CC2(OC1=O)c1ccccc1CCc1ccccc12	9.4	3.14	44	32.7	4.65	27.4	15.6	4.81	3.74	3.04										
CN(C)CCCC1(c2ccc(F)cc2)OCc2cc(-c3ccc4cc[nH]c4c3)ccc21 (stereo unspecified)	3.42	7.9	3.71	3.46	4.72	5.36	3.67	4.08	3.35	5.31	1.85	2.28	1.71	1.9	2.16	2.17	1.79	1.93	1.74	2.21
O=C1Nc2ccccc2SC1C1SC(=S)N(Cc2ccccc2)C1=O (stereo unspecified)	1.99	24.7	19.7	5.58	33.7	> 43	29.5	> 81.1	6.31	97.4	0.458	4.21	6.62	2.26	13.9	5.74	11.2	2.65	2.37	23.6
Nc1ccc(-c2ccc(-c3nc4ccccc4[nH]3)cc2)cc1	> 66.8	71.2	56.6	> 100	79.9	56.8	> 100	> 100	40.1	> 76.3	< 0.0248	18.6	3.83	10.6	21.1	14.1	18.4	0.117	1.2	21.3
N#Cc1ccc(-n2cnc(NC(=O)[C@H]3CCN(C#N)C3)c2)cc1	11.8	6.98	15.5	49.4	12.5	20.2	98.7	> 100	4.84	> 86.8	1.58	1.92	2.28	1.52	1.86	2.39	3.51	2.67		2.41
N#Cc1c(NC(=O)CCC(=O)O)ccc2ccccc12	> 100	> 100	> 100	> 100	> 100	> 100	> 100	> 100	> 100	> 100										
